Laboratory results reported in a melting point compilation (Tetko et al.; mined from patent text by program, amines drawn as free bases though some values may be those of a salt).

Row | Compound | melting point [°C]
1 | CCOc1nc2nc(C(OC(C)=O)C3(Br)C(=O)N4C(C(=O)OCc5ccc([N+](=O)[O-])cc5)=CSC43)cn2c2c1CCC2 (stereo unspecified) | 119
2 | CC(=O)OC1CSC(Oc2cncc(-c3cnccc3C)c2)C(OC(C)=O)C1OC(C)=O (stereo unspecified) | 165
3 | C=CCOc1cc(C(=O)O)cc(S(C)(=O)=O)c1OCC=C | 163
4 | CNc1nc(C)nc(N2CCCC(C)C2)n1 (stereo unspecified) | 155 to 156
5 | N#Cc1ccc(OC2CCN(c3ccncc3)C2)cc1 (stereo unspecified) | 182 to 185
6 | CCCCOCC(O)COc1ccc(-c2nc(-c3ccc(OCC(O)COCCCC)cc3O)nc(-c3c(C)cc(C)cc3C)n2)c(O)c1 (stereo unspecified) | 125 to 131
7 | CCOC(=O)CCC1CCN(C(=O)[C@H](C)NC(=O)c2ccc(C#N)cc2)CC1 | 108 to 109
8 | CCC(CC)c1ccc(Cl)c2nc3n(c12)CCCCN3c1ccc(S(C)=O)cc1C (stereo unspecified) | 189 to 190
9 | COc1cccc2c1Sc1c(OC)cccc1C2(CCOS(C)(=O)=O)CCOS(C)(=O)=O | 176 to 178
10 | CCCCCCCCCCCCNC(=O)c1cc(-c2cccc(C(F)(F)F)c2)c(OCCO)c(-c2cccc(C(F)(F)F)c2)c1 | 154 to 158
11 | COCCCn1c2cc(C)ccc2n2c(C)nnc12 | 113 to 114
12 | CC(C)OC1OC(=O)CC(C)(C)C1OS(C)(=O)=O (stereo unspecified) | 75
13 | NC(=O)/C=C1\CCc2c(Cl)cc(F)cc21 | 182 to 184
14 | CC(=O)c1cnc([N+](=O)[O-])n1C | 81 to 83
15 | CN1Cc2c(C(=O)O)ncn2-c2cccnc2C1=O | 292 to 295
16 | C=CCNc1c(C(C)=O)cnc2cn[nH]c12 | 211 to 213
17 | Cn1cc(C2=C(c3cn(CCCNc4ccc([N+](=O)[O-])cn4)c4ccccc34)C(=O)NC2=O)c2ccccc21 | 245 to 247

Row | Compound | melting point [°C]
18 | CC[C@@H](C(C)C)[C@H](O)[C@H](O)[C@@H](C)[C@H]1CC[C@H]2[C@@H]3CCC4=CC(=O)CC[C@]4(C)[C@H]3CC[C@]12C | 192 to 194
19 | CCn1c(=O)c(-c2cc(OC)cc(OC)c2)cc2cnc(SC)nc21 | 120 to 122
20 | Nc1ccn(C2CC(N)C(CO)O2)c(=O)n1 (stereo unspecified) | 207
21 | Cc1nc2c(s1)CC(CO)CC2 (stereo unspecified) | 101 to 102
22 | CC(C)COc1ccc(F)cc1OCCOS(C)(=O)=O | 53 to 55
23 | COC(=O)CCc1nc(C=O)ccc1OCCCC/C=C/c1ccc(OC)cc1 | 66 to 69
24 | Cc1ncsc1C(=O)Nc1cnc(-n2nc(C(F)(F)F)cc2C2CC2)nc1 | 148 to 152
25 | C[Si](C)(C)c1ccc(F)c([Si](C)(C)C)c1C(=O)N1CCCC1 | 97 to 100
26 | COC1=CC(=O)C(OC)=C(CCCC2=C(OC)C(=O)C=C(OC)C2=O)C1=O | 157 to 159
27 | COc1ccc(CN2C(=O)[C@@H](N3C(=O)c4ccccc4C3=O)[C@H]2c2ccc(Cl)cc2)c(OC)c1 (relative stereo) | 178 to 180
28 | CC(C)CC1CNCCNCCNCCNCCN1 (stereo unspecified) | 70 to 76
29 | CCOc1cccc(-c2ccc3c(c2)C=C(C(=O)Nc2ccc(CN(C)C4CCOCC4)cc2)CCS3(=O)=O)c1 | 192 to 195
30 | COCCc1ccsc1S(N)(=O)=O | 64 to 73
31 | O=C(O)C1CC=CCC1C(=O)N1CCc2cc(S(=O)(=O)N3CCN(c4cccc(Cl)c4)CC3)ccc21 (stereo unspecified) | 146 to 148
32 | CCCCCCCCCCCCCCc1c[nH]c(C(=O)O)c1 | 148 to 150
33 | CCCc1cc(-c2cc(OC)c3c(C)c(C)c(=O)oc3c2)on1 | 94
34 | CCOc1ccc(-c2ccc(C#CC3(O)CN4CCC3CC4)cc2)cc1 (stereo unspecified) | 255 to 256

Other lines, results leading:

Row | melting point [°C] | Compound
35 | 167 | O=C1CNN(Cc2ccc(Cl)cc2Cl)C(=O)N1
36 | 77 to 78 | CC(C)Nc1cc2c(cc1C(=O)c1ccccc1)OCO2
37 | 217 to 218 | Cc1cc(C)c(Nc2ccnc(Nc3ccc(C#N)cc3)n2)c(C)c1
38 | 126 to 128 | CCOC(=O)CCc1ccc2cc(O)ccc2n1
39 | 104 to 105 | COCC1CN(c2ccc(C3CCC(OC(=O)c4ccccc4)CC3)cc2)C(=O)O1 (racemic)
40 | 135 to 137 | CC(C)(C)C(NC(=O)Cc1ccc(Cl)cc1)NC(=NC#N)Nc1cccc2cnsc12 (stereo unspecified)
41 | 208 to 210 | CNC(=O)c1cnc2cccc(C)n2c1=O
42 | 118 to 119 | O=C1Cc2cc3c(CCC4CCN(Cc5ccccc5)CC4)noc3cc2N1
43 | 132 to 134 | COc1c(OC)c(OC)c2c(=O)cc(-c3ccc(OCc4ccccc4)cc3)oc2c1OC
44 | 180 | COc1ccc2ccc(N3C(=O)c4ccccc4C3CC(=O)CCc3ccccc3)nc2n1 (stereo unspecified)
45 | 96 to 98 | c1ccc2c(c1)[nH]c1c2nc2ncccn21
46 | 199 to 201 | CCn1cc(C(=O)NC2CC2c2ccccc2)c(=O)c2cnc(N3CCCC3)nc21 (stereo unspecified)
47 | 176 | CN(C)CCCn1c(=O)c(C#N)c(N2CCN(C(=O)c3cccs3)CC2)c2cccnc21
48 | 265 to 266 | Clc1ccc2nc(Cl)c3[nH]c4ccccc4c3c2c1
49 | 205 to 206 | CC1=C(C(=O)OC(CN2CCCCC2)c2ccccc2)C(c2cccc([N+](=O)[O-])c2)n2ccnc2N1 (stereo unspecified)
50 | 114 to 115 | Cc1ccc(Oc2cccc(-c3cccc(C(=O)NCCC#N)c3)n2)c(C)c1
51 | 167 to 168 | CCOC(=O)CCCCCc1c(O)c2cccnc2n(-c2ccccc2)c1=O
52 | 123 to 125 | Cc1c(CO)c(CO)c2n1-c1ccccc1C2
53 | 147 to 148 | CCc1noc(-c2cn(-c3nccs3)cn2)n1

Row | melting point [°C] | Compound
54 | 136 to 137 | C=Cn1nc(-c2cc(C(C)(C)C)c(O)c(C(C)(C)C)c2)c2ccc(C)nc21
55 | 54 to 56 | C=C(C)OC1CCC(=O)N1S(=O)(=O)c1ccccc1 (stereo unspecified)
56 | 103 to 104 | CCn1c2ccccc2c2sccc(=O)c21
57 | 172 to 181 | COc1ccc(Cc2nc3c(O)cccc3o2)cc1OC1CCCC1
58 | 155 to 156 | c1ccc(CNCC2CCn3c(nc4ccccc43)S2)cc1 (stereo unspecified)
59 | 215 to 217 | CCCn1cnc2c1c1nnc(-c3ccccc3)n1c(=O)n2CCC
60 | 174 to 175 | CC(C)Cc1nc(Cc2ccccc2)c2c(c1O)COC2
61 | 74.5 to 75.5 | O=[N+]([O-])c1ccc(Cl)cc1OCC=Cc1ccccc1
62 | 162 | CCOC(=O)c1ccoc1Cn1c(NC2CCN(C(=O)OCC)CC2)nc2ccccc21
63 | 217 to 220 | NC(=O)c1sc2nc(N3CCC(NCC(O)c4ccncc4)CC3)cc(C(F)(F)F)c2c1N (stereo unspecified)
64 | 212 to 215 | Cc1cc(C(=O)O)c(N)cc1Cl
65 | 120 to 122 | Cc1nc(C)n(-c2cc([C@@H]3C[C@H]3c3nc4ccccc4n3C)nc(N)n2)n1 (relative stereo)
66 | 350 to 355 | Oc1cc(O)c2ccccc2n1
67 | 227 | Clc1ccc(C=CC(C=Cc2ccc(Cl)cc2)=NNC2=NCC(c3ccccc3)(c3ccccc3)N2)cc1
68 | 141 to 143 | CCOC(=O)c1ccc(-c2cccc(CN)n2)cc1
69 | 270 | CC(=O)Nc1nc2ccc(S(=O)(=O)n3c(CCCC(=O)O)cc4nc(Cl)ccc43)cc2s1
70 | 28 to 31 | COc1cccc2ncoc12
71 | 240 to 242 | CC(C)(C)OC(=O)N1CCN(c2nc(N)c3nc(-c4ccccc4)c(N)nc3n2)CC1
